The values below come from article PMC12067444, “Synthesis and Pharmacological Characterization of Novel Peripheral Cannabinoid-1 Receptor Blockers Based on a Tricyclic Scaffold” (Journal of Medicinal Chemistry, 2025).

What is called IC50 is the concentration that gives 50% inhibition. A word on the Papp A→B: it is the apparent permeability from the apical to the basolateral side of a cell layer. A higher Papp A→B goes with ready permeation.

Each structure is given as a SMILES string.

One data set has as its system TA98. Put plainly: Mini-Ames assay, strain TA98. It is filed as cell-based. The settings on record: Salmonella typhimurium. As to the method: (§1) Mini Am es assay. To conduct the assay, top agar was melted with a microwave and maintained at a temper atur e ≥47 °C in a water bath. T he assay was performed using a heat block set to 45 °C ± 2 °C. 12 × 75 mm test tubes were prepared in duplicates. For each concentration, the following components were added sequentially to a test tube:
(§2) […] The mixture was vortexed and then dispensed into w ells using a dispo sable pipette. The plates wer e then incubated at 37±2 °C for approximately 48 to 72 hours.
(§3) BBbbbb BBBBbbbb BBBB = AAAAbbbbbbAAbb nnnnnnbbbbbb bboo bbbbAAbbbbbbbbnnbbbb oobbbb bbbb eeee dd bbbbbb AAbbbbnn gg AAAAbbbbbbAAbb nnnnnnbbbbbb bbBB bbbbAAbbbbbbbbnnbbbb BBbbbb DDDDDDDD nn bbAAbbbbaaAAbb AAbbbbnnaa The mutagenicity of the compound was determined by evaluating the number of revertant colonies in strains TA98 and TA100. A compound was […]
(§4) related and if the fold increase in revertants (F) was equal to or greater than 2 for […]
(§5) background lawn growth on the agar plates. A scoring system ranging from 0 to 4 […]
growth, respectively. A score of 4 signified full '100%' growth. […]
(§6) background lawn and required magnification for visualization. […]

The next data set concerns the target P-gp (MDR1-MDCKII cells) (Homo sapiens, UniProt P08183). As to the kind of experiment: Bidirectional permeability in MDR1-MDCKII cells with and without GF120918. The settings on record: for Rank Papp: MDR1-MDCKII permeability rank. As to the method:
(§7) MDR1-MDCKII cells were seeded onto […] (PET) in a 96-well insert system. Test and reference compounds were administered to the apical (A-to-B) and basolateral (B-to-A) sides of the cell monolayer. Permeation of the compounds in both directions was assessed, with and without a P-glycoprotein (P-gp) inhibitor (GF120918). […] After a 2.5-h incubation period, each compound’s permeability and efflux ratio were calculated as described in the SI. […]
(§8) Bidirectional permeability assessment in MDR1-MDCK cells. Test and reference compounds were quantified using LC -MS/MS ana lysis based on th e peak ar ea r atio of analyte to internal standard (IS). T he apparent permeability coefficient (Papp) in cm/s was computed using the equation: Pa pp = (dCr/d t ) × V r / ( A × C 0), where dCr/ d t […]
(§9) represents the cumulative concentration of the compound in the receiver chamber over time (µM/s), Vr is the solution volume in the receiver chamber (0.075 mL on the apical side, 0.25 mL on the basolateral side), A is the surface area for transport (0.0804 cm2 f or the monolayer ar ea), and C0 is the initial concentration in the donor chamber ( µM) .
(§10) The efflux ratio was determined using the equation Efflux Ratio = P a pp ( B:
(§11) A ) / Pa pp (A: B) . […]
(§12) Additionally, the percent of lucifer yellow in the basolateral well was calculated using the equation:
(§13) Lucif er yellow = VV bbbbbbbbbbbbbbbbbbbb ×RR FFFF bbbbbbbbbbbbbbbbbbbb ×100 VV bbaaaaaa bbbb ×RRRRRR bbaaaaaa bbbb+VV bbbbbbbbbbbbbbbbbbbb ×RRFFFF bbbbbbbbbbbbbbbbbbbb wher e RFUApical and RFUBasolateral demote the r elative f luor escence unit values of lucif er yellow in the apical and basolateral wells, respectively, and VApical and VBasolateral represent the volumes of apical and basolateral wells (0.075 mL and 0.25 mL, r espectively) . T he % Lucif er Yellow should be less than 2, indicating minimal leakage. […]

For another data set, the system named is HepG2 cells. As to the kind of experiment: Cell viability assay (CellTiter Glo). Format: cell-based. The settings on record: Homo sapiens, 72 h, read-out: cell viability relative IC50. As to the method:
Cell viability assay. To assess the cell viability, which indicates the toxicity of the novel compounds, a total of 3,000 HepG2 cells were seeded into a 384-well plate. The compounds were then dispensed onto the cell plate using a Tecan D300e digital dispenser. Following compound addition, 35 μL CellTiter Glo reagent was added to all wells of the assay plate, and the plate was mixed for 30 sec on an or bital shaker to lyse cells. Subsequently, the plate was incubated at room temperature for 10 minutes. The luminescence signal was measured using a 384-well plate reader (EnVision). The obtained data were analyzed using XL-fit software (ID Business Solutions Ltd., Software version: XL fit 5. 5. 0. 5). The percentage of inhibition was calculated using the […]
Inhibition (%) = (1-Sample / ZPE) ×100
Sample represents the test compound's luminesc e nce signal, and ZPE represents the luminescence signal f r om the zer o-percent enzyme control.
(In general: Cellular ATP, detected with luciferase, serves as a proxy for viable cell number.)

Another data set deals with P-gp (MDR1) (Homo sapiens, UniProt P08183). Put plainly: Bidirectional permeability in MDR1-MDCKII cells with and without GF120918. As to conditions: dog; for Papp A→B at 2.5 h: MDCK-MDR1; for recovery at 2.5 h: MDCK-MDR1, Mean recovery % A to B, without GF120918. As to the method: as §7, §8, §9, §10, §11, §12, §13
Another data set has as its target T1, mouse CB1R (Mus musculus, UniProt P47746).
T1 construct: crude membranes from mouse brain; from tissue; host or cells: mouse brain cortex (without cerebellum) membranes, C57Bl/6Jhsd mice
Put plainly: Radioligand competition displacement binding, [3H]CP-55,940, mouse brain membranes. The settings on record: [3H]CP-55,940 displacement, mouse brain membranes; read-out: CB1R mKi. As to the method: BNS compounds’ binding to CB1R and CB2R was assessed in competition displacement assays using [^3H]CP-55,940 as the radioligand and crude membranes from mouse brain or human cells overexpressing the CB1R or CB2R. All data were in triplicates with Ki values determined from three independent experiments. See SI for a detailed procedure.
Supplementary Experimental Methods
Brain membrane preparation for CB1R b i nd i ng . The mouse cortex, excluding the cerebellum, was dissected from 6-week-old C57Bl/6Jhsd mice (Harlan, Israel). The tissue was homogenized in 4 mL Buffer 1 (320 mM sucrose, 2 mM EDTA, 5 m M MgCl 2) using a glass-Teflon homogenizer and Hei-T ORQUE 200 (Heidolph; Cat# 17-012- 002- 25 -1) homogenizer set to 132 rpm. After homogenization, the mixture was centrifuged at 1,600 × g for 10 min at four °C, and the resulting supernatant was kept on ice. The pellet (P1) was discarded, and the remaining supernatant was subje cted to additional rounds of resuspension in 4 mL Buffer 1 followed by centrifugations, repeating this process three times. The pellets obtained from these centrifugations were discarded, and the three supernatant fractions were combined and subjected to higher-speed centrifugation at 39,000 × g for 15 min at f ou r °C. […] This resuspended pellet ( P 2 ) was incubated at 37 °C for 10 min and then centrifuged at 23, 000 × g for 10 min at 4°C.
After centrifugation, the pellet (P2) was resuspended in 5 mL Buffer 2 and further incubated at 30 °C for 40 min. Following this incubation, the suspension was centrifuged at 11,000 × g for 15 min at 4 °C. The pellet (P2) was resuspended in 2 mL Buffer 3 containing 50 mM TRIS HCl pH 7.4, 1 mM EDTA, and 3 mM MgCl 2. T h e protein concentration of the final suspension was determined using the BCA assay.
Subsequently, the suspension was diluted to a final concentration of 2 mg/mL in Buffer 3, aliquoted on ice, and stored at - 80 °C for further use.
CB1R and CB2R binding. Binding to the CB1R/CB2R was asse ss ed using competition displacement as says with [ 3H] CP -55,940 as the radioligand. Purified membranes from the mouse brain were utilized for CB1R assessment (as described above). Purified […]
membranes from cells overexpressing human CB2R ( Char les River CAT # A618) w e r e employed for CB2R evaluation.
For mouse CB1R binding assays, the novel compounds were dissolved in dimethyl sulfoxide (DMSO) to reach a final concentration of 10 mM. Each compound was then diluted in Buffer 3 (as described above) supplemented with 0.14% BSA, resulting in concentrations ranging from 10^-4 M to 10^-10 M. Triplicates of 100 µL of each concentration were dispensed into siliconized glass tubes. At the same time, 100 µL of Buffer 3 with 0.14% BSA was dispensed into three tubes as blanks. CB1R b r a i n membranes (20 µg) were added to each tube and diluted with 800 µL Buffer 3 with 0.14% BSA. Subsequently, 5 nM of [ 3H] CP -55,940 (100 µL) was added to each tube.
The tubes were sealed with parafilm and incubated with shaking (120 rpm) in a water bath at 30 °C for 1 hour. Following incubation, 2 mL of cold Buffer 4 (50 mM TRIS HCl pH 7.4, 1 mg/mL BSA) was added to each tube.
To harvest the content of each tube, a Brandel M-24R Vacuum Harvester was employed, with a wet WHATMAN GF/B filter paper (Fired) (one membrane for 12 tubes) placed in the harvester after being washed twice with Buffer 4. The filter membrane in the harvester absorbed the full content of each tube. Then, the filter membrane was wash ed six times with Buffer 4. Each filter -glass membrane tube wa s excised and transferred to a 20 mL glass tube co ntaining a 5 mL ULTIMA GOLD scintillation cocktail. […]

Another data set concerns TA100. As to the kind of experiment: Mini-Ames assay, strain TA100. Format: cell-based. The procedure: as §1, §2, §3, §4, §5
complete cytotoxicity, while scores 1, 2, and 3 represented 25%, 50%, and 75% growth, respectively. A score of 4 signified full '100%' growth. The background […]
as §6
Background: In the Ames test, an excess of revertant colonies over the control signals mutagenicity.

Setting [1] is: Salmonella typhimurium, 2 μg/well.

P-gp (MDR1-MDCKII cells), sequence (P08183 whole entry): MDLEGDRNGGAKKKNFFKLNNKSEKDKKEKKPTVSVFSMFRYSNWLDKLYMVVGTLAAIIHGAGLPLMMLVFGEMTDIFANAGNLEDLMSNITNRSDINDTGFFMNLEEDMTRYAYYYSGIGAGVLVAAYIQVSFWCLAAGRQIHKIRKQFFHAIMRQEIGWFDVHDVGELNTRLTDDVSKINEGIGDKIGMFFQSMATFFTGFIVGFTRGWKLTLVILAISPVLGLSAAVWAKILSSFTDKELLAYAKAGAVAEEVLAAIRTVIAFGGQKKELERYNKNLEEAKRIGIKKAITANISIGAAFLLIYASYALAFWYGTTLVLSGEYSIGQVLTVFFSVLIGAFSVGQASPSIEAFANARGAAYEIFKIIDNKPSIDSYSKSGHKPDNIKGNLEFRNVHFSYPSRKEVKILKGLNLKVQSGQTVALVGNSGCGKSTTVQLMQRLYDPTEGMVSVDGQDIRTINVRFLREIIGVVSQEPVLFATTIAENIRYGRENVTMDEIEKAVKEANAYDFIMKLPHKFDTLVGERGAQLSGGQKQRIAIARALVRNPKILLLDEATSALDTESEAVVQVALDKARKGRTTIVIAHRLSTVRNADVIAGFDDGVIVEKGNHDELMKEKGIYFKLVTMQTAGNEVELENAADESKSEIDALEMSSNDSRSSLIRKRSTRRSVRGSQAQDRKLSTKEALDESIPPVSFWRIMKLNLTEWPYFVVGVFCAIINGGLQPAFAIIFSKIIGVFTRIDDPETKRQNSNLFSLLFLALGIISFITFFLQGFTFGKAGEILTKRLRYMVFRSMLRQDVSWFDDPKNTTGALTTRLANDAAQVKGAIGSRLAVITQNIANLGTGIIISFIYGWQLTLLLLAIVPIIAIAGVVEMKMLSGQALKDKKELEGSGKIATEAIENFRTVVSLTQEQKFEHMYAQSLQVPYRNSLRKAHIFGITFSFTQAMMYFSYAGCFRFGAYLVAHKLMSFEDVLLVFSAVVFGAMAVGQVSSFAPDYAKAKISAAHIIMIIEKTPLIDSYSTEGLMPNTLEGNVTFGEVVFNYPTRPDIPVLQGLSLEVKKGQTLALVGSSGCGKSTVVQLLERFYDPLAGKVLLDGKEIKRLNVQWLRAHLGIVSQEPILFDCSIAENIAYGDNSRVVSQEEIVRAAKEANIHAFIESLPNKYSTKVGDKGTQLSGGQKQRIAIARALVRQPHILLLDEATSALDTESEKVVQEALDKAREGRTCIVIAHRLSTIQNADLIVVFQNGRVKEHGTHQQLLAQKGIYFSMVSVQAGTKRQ
P-gp (MDR1), sequence (P08183 whole entry): as above
T1 sequence (P47746 whole entry): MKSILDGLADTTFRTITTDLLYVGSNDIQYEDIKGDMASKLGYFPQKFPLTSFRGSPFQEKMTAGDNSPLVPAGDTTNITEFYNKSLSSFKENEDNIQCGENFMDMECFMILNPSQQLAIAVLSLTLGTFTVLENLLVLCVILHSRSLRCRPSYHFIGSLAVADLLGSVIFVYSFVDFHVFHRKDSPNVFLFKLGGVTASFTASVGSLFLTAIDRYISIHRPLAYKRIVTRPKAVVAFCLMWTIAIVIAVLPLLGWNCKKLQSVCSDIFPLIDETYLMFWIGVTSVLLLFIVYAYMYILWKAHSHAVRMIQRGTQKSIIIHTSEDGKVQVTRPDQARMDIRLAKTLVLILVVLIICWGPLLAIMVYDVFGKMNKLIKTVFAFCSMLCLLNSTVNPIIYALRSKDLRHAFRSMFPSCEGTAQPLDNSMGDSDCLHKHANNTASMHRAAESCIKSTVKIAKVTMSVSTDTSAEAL

For `O=[N+]([O-])c1ccc2c(c1)Cc1ccccc1-2` [2-nitrofluorene (2-NF), 2-nitrofluorene, reference compound], in the data set with TA98 (4 μg/well), the F value is on record as 14.00 and the “Number of revertants MEAN” value worked out at 102.67.

As for `C[C@H]1O[C@@H](O[C@H]2[C@@H](O)C[C@H](O[C@H]3[C@@H](O)C[C@H](O[C@H]4CC[C@@]5(C)[C@H](CC[C@@H]6[C@@H]5C[C@@H](O)[C@]5(C)[C@@H](C7=CC(=O)OC7)CC[C@]65O)C4)O[C@@H]3C)O[C@@H]2C)C[C@H](O)[C@@H]1O` [Digoxin, reference compound], the P-gp substrate result on P-gp (MDR1-MDCKII cells) (MDR1-MDCKII cells) is “Ye s”. For the same compound, the “Rank Papp” value at P-gp (MDR1-MDCKII cells) is given as “Low”. At P-gp (MDR1-MDCKII cells) (without GF120918), the “Mean Papp B to A” value is recorded as 10.88 10 -6 cm/s.

Regarding `CN[C@@H]1C[C@H]2O[C@@](C)([C@@H]1OC)n1c3ccccc3c3c4c(c5c6ccccc6n2c5c31)C(=O)NC4` [Staurosporine, reference compound], the IC50 in the data set on HepG2 cells amounted to 60 nM.

Turning to `CC(C)(C)NCC(O)COc1cccc2c1CC(O)C(O)C2` (stereo not drawn) [Nadolol, reference compound], on P-gp (MDR1), the Papp A→B at 2.5 h was 0.42 ×10⁻⁶ cm/s and the recovery at 2.5 h amounted to 102%. In addition, the “Rank Papp” value on P-gp (MDR1-MDCKII cells) was “Low”.

For the compound `CNC(=O)NC1CCCOc2c1nn(-c1ccccc1Cl)c2-c1ccc(Cl)cc1` (stereo not drawn) [BNS813, 1-[2-(2-Chlorophenyl)-3-(4-chlorophenyl)-5,6,7,8-tetrahydrooxepino[3,2-c]pyrazol-8-yl]-3-methyl-urea], the Ki at mouse CB1R is 1130 nM.

`Nc1ccc2cc3ccccc3cc2c1` [2-aminoanthracene (2-AA), 2-aminoanthracene, reference compound]: in the data set with TA98 (2 μg/well), the F value was found to be 31.70 and the “Number of revertants MEAN” value was found to be 348.67. Further, the solubility entry in the data set with TA100 is reported as “P0”. Besides, in the data set with TA100 (setting [1]), the F value is given as 8.00 and the “Number of revertants MEAN” value is recorded as 317.33.

As for `COCCc1ccc(OCC(O)CNC(C)C)cc1` (stereo not drawn) [Metoprolol, reference compound], at P-gp (MDR1), the apical-to-basolateral permeability (Papp A→B) at 2.5 h came to 28.7 ×10⁻⁶ cm/s and the recovery at 2.5 h was determined as 107%. Moreover, the “Rank Papp” value at P-gp (MDR1-MDCKII cells) was “Hi gh”.
